Tested on: ATF4 luciferase reporter in HEK293T cells
Assay: ATF4-Luc assay (ATF4 luciferase reporter, tunicamycin-treated HEK293T cells)
Type: cell-based, human
Conditions: Homo sapiens, HEK-293T; HEK293T cells carrying the ATF4 luciferase reporter, 1 μg/mL tunicamycin, 7 hours

Row | Compound | EC50 [nM]
1 | O=C(COc1ccc(Cl)c(F)c1)NC12CCC(NC(=O)COc3cc(F)c(Cl)cc3Br)(CC1)C(Br)C2=O (stereo not shown) [Compound 570, 2-(2-bromo-4-chloro-5-fluorophenoxy)-N-{2-bromo-4-[2-(4-chloro-3-fluorophenoxy)acetamido]-3-oxobicyclo[2.2.2]octan-1-yl}acetamide] | 50 to 250
2 | O=C(COc1ccc(Cl)c(F)c1)NC12CCC(OCc3ccccc3)(CC1)CC2O (stereo not shown) [Compound 567, N-[4-(benzyloxy)-2-hydroxybicyclo[2.2.2]octan-1-yl]-2-(4-chloro-3-fluorophenoxy)acetamide] | 500 to 2000
3 | O=C(COc1ccc(Cl)c(F)c1)NC12CCC(NC(=O)COc3cc(F)c4cn[nH]c4c3)(CC1)[C@@H](O)C2 [Compound 738, 2-(4-chloro-3-fluorophenoxy)-N-[(3S)-4-{2-[(4-fluoro-1H-indazol-6-yl)oxy]acetamido}-3-hydroxybicyclo[2.2.2]octan-1-yl]acetamide] | < 10
4 | O=C(COc1ccc(Cl)cc1)NC12CC(NC(=O)COc3ccc(Cl)c(Cl)c3)(C1)C2 [Compound 117, 2-(4-chlorophenoxy)-N-{3-[2-(3,4-dichlorophenoxy)acetamido]bicyclo-[1.1.1]pentan-1-yl}acetamide] | < 10
5 | O=C(COc1ccc(C(F)F)cc1)NC12CCC(NC(=O)COc3ccc(Cl)c(F)c3)(CC1)[C@@H](O)C2 [Compound 539, 2-(4-chloro-3-fluorophenoxy)-N-[(2S)-4-{2-[4-(difluoromethyl)phenoxy]acetamido}-2-hydroxybicyclo[2.2.2]octan-1-yl]acetamide] | < 10
6 | O=C(COc1ccc(F)c(Cl)c1)NC12CCC(NC(=O)COc3ccc(Cl)c(F)c3)(CC1)[C@@H](O)C2 [Compound 545, 2-(4-chloro-3-fluorophenoxy)-N-{(2S)-4-[2-(3-chloro-4-fluorophenoxy)acetamido]-2-hydroxybicyclo[2.2.2]octan-1-yl}acetamide] | < 10
7 | COc1cccc(OCC(=O)NC23CCC(NC(=O)COc4ccc(Cl)c(F)c4)(CC2)[C@@H](O)C3)n1 [Compound 792, 2-(4-chloro-3-fluorophenoxy)-N-[(2S)-2-hydroxy-4-{2-[(6-methoxypyridin-2-yl)oxy]acetamido}bicyclo[2.2.2]octan-1-yl]acetamide] | < 10
8 | O=C(COc1ccc(Cl)c(F)c1)NC12CCC(NC(=O)COc3ccc(Cl)c(F)c3)(C1)C2 [Compound 177, N,N′-(bicyclo[2.1.1]hexane-1,4-diyl)bis[2-(4-chloro-3-fluorophenoxy)acetamide]] | < 10
9 | O=C(COc1ccc(S(F)(F)(F)(F)F)cc1)NC12CC(NC(=O)COc3ccc(Cl)c(F)c3)(C1)C2 [Compound 219, 2-(4-chloro-3-fluorophenoxy)-N-(3-{2-[4-(pentafluoro-λ^6-sulfanyl)phenoxy]acetamido}bicyclo[1.1.1]pentan-1-yl)acetamide] | < 10
10 | O=C(COc1ccc(Cl)c(F)c1)NC12CCC(NC(=O)COc3ccc(Cl)cc3)(CC1)[C@@H](O)C2 [Compound 454, 2-(4-chloro-3-fluorophenoxy)-N-{(3S)-4-[2-(4-chlorophenoxy)acetamido]-3-hydroxybicyclo[2.2.2]octan-1-yl}acetamide] | < 10
11 | O=C(COc1ccccn1)NC12CCC(NC(=O)COc3ccc(Cl)c(F)c3)(CC1)[C@@H](O)C2 [Compound 663, 2-(4-chloro-3-fluorophenoxy)-N-[(2S)-2-hydroxy-4-{2-[(pyridin-2-yl)oxy]acetamido}bicyclo[2.2.2]octan-1-yl]acetamide] | 10 to 50
12 | O=C(COc1ccc(Cl)c(F)c1)NC12CC(NC(=O)COc3ccc(Cl)cc3NCCO)(C1)C2 [Compound 797, 2-(4-chloro-3-fluorophenoxy)-N-[3-(2-{4-chloro-2-[(2-hydroxyethyl)amino]phenoxy}acetamido)bicyclo[1.1.1]pentan-1-yl]acetamide] | 50 to 250
13 | O=C(COc1ccc(Cl)c(F)c1)NC12CC(NCC(=O)c3ccc(Cl)c(Cl)c3)(C1)C2 [Compound 286, 2-(4-chloro-3-fluorophenoxy)-N-(3-{[2-(3,4-dichlorophenyl)-2-oxoethyl]amino}bicyclo[1.1.1]pentan-1-yl)acetamide] | 50 to 250
14 | O=C(COc1ccc(Cl)cc1)NC12CCC(NC(=O)COc3ccc(Cl)cc3)(CC1)[C@@H](O)C2 [Compound 540, N,N′-[(2S)-2-hydroxybicyclo[2.2.2]octane-1,4-diyl]bis[2-(4-chlorophenoxy)acetamide]] | < 10
15 | Cc1cccc(CCOCC(=O)NC23CC(NC(=O)COc4ccc(Cl)c(F)c4)(C2)C3)c1 [Compound 136, 2-(4-chloro-3-fluorophenoxy)-N-(3-{2-[2-(3-methylphenyl)ethoxy]acetamido}-bicyclo[1.1.1]pentan-1-yl)acetamide] | 250 to 500
16 | O=C(COc1ccc(Cl)c(F)c1)NC12CC(NC(=O)Cc3cccc(C(F)(F)F)c3)(C1)C2 [Compound 457, 2-(4-chloro-3-fluorophenoxy)-N-(3-{2-[3-(trifluoromethyl)phenyl]acetamido}bicyclo[1.1.1]pentan-1-yl)acetamide] | > 2000
17 | O=C(COc1ccc(Cl)c(F)c1)NC12CC(N(CCCOc3ccc(Cl)c(F)c3)CCCOc3ccc(Cl)c(F)c3)(C1)C2 [Compound 704, N-(3-{bis[3-(4-chloro-3-fluorophenoxy)propyl]amino}bicyclo[1.1.1]pentan-1-yl)-2-(4-chloro-3-fluorophenoxy)acetamide] | 250 to 500
18 | O=C(CCOc1cccc(Cl)c1)NC12CC(NC(=O)COc3ccc(Cl)c(Cl)c3)(C1)C2 [Compound 169, 3-(3-chlorophenoxy)-N-{3-[2-(3,4-dichlorophenoxy)acetamido]bicyclo-[1.1.1]pentan-1-yl}propanamide] | 250 to 500
19 | O=C(COc1ccc(Cl)c(F)c1)NC12C=C(C(=O)O)C(NC(=O)COc3ccc(Cl)c(F)c3)(CC1)CC2 [Compound 717, 1,4-bis[2-(4-chloro-3-fluorophenoxy)acetamido]bicyclo[2.2.2]oct-2-ene-2-carboxylic Acid] | 50 to 250
20 | O=C(COCc1ccc(-n2cccn2)nc1)NC12CC(NC(=O)COc3ccc(Cl)c(F)c3)(C1)C2 [Compound 280, 2-(4-chloro-3-fluorophenoxy)-N-[3-(2-{[6-(1H-pyrazol-1-yl)pyridin-3-yl]methoxy}acetamido)bicyclo[1.1.1]pentan-1-yl]acetamide] | > 2000
21 | Cc1ccc(OCC(=O)NC23CC(NC(=O)COc4ccc(Cl)c(F)c4)(C2)C3)cc1C [Compound 456, 2-(4-chloro-3-fluorophenoxy)-N-{3-[2-(3,4-dimethylphenoxy)acetamido]bicyclo[1.1.1]pentan-1-yl}acetamide] | < 10
22 | O=C(COc1cc(F)c2cn[nH]c2c1)NC12CCC(NC(=O)COc3ccc4cn[nH]c4c3)(CC1)[C@@H](O)C2 [Compound 709] | < 10
23 | O=C(COc1ccc(Cl)c(F)c1)NC12CCC(NC(=O)COc3ccc(C(F)(F)F)nc3)(CC1)[C@@H](O)C2 (single isomer, unassigned) [Compound 302] | < 10
24 | O=C(COc1ccc(Cl)c(Cl)c1)NC12CCCC(NC(=O)COc3ccc(Cl)c(Cl)c3)(C1)C2 [Compound 209] | > 2000
25 | O=C(COCCc1cccc(Cl)c1)NC12CC(NC(=O)COc3ccc(Cl)c(Cl)c3)(C1)C2 [Compound 151, 2-[2-(3-chlorophenyl)ethoxy]-N-{3-[2-(3,4-dichlorophenoxy)acetamido]-bicyclo[1.1.1]pentan-1-yl}acetamide] | < 10

— US20240166652A1, “MODULATORS OF THE INTEGRATED STRESS PATHWAY” (Calico Life Sciences LLC, priority 2017, published 2024)
